What was measured:
[1] = Solubility (physico-chemical properties); assay type: physicochemical; conditions: for solubility: organic solvent or mixture, in DMSO and in chloroform, read-out: solubility in organic solvents
Jurkat cells = experiment: Evaluation of cellular viability by MTT assay; assay type: cell-based, human; conditions: 10 µM, incubated 18-24 hr, MTT, absorbance 570 nm
Protocol: Jurkat, an acute T-lymphoblastic leukemia cell line generated from a person, have been used. Cell culture have been cultured in RPMI-1640 culture medium containing 10% FBS.
Jurkat cells were cultured at 1x10^5 cells/ml in RPMI 1640 medium supplemented with 10% fetal bovine serum (FBS), 2mM L-glutamine and 100 U/ml penicillin + 100 ug/ml streptomycin.
To detect drug effect in vitro, MTT [3-(4,5-dimethylthiazol-2-yl)-2,5-diphenyltetrazolium bromide] assay was used as described (Carmichael J et al., 1987 Cancer Res. 47, 936-42). Briefly, cells were seeded in triplicate on 96-well culture plates at a density of 20000 cells/well. The drugs were added in order to have the final concentration of 10 µM (1 µl of a solution of 10mM in DMSO) and incubated for 18-24 hr. Then MTT (0.5 mg/ml) was added to each well, and plates were incubated for an additional 1 to 3 hr in the dark at 37 °C. After this time the MTT solution was aspirated from the wells and 0.1 ml of DMSO was added. The plates were allowed to stand for 10 min, and then the absorbance was determined in a SpectraCount (Packard) microplate reader at 570 nm. The drug effect was determined by comparing absorbances of treated and untreated cells.

[2] = tested on: reverse passive Arthus reaction, mouse ear pinna; experiment: Reverse passive Arthus reaction (RPA) in the mouse ear pinna: oedema and Evans blue extravasation; assay type: in vivo; conditions: mouse ear; for Extravasation / Riduction % (extravasation): 10 mg/Kg i.p.; for Extravasation: Evans blue density at 620 nm in ear homogenate supernatant, Vehicle 0,90±0,06, Naïve 0,04±0,01; for Oedema (mg): 10 mg/Kg intraperitoneally 1 hour before induction, weight increase of 8 mm punch vs contralateral ear, three hours after antigen, Vehicle 49,8 ± 1,2, Naive 23,7 ± 1,2; for Riduction % (extravasation): reduction of extravasation versus Vehicle (0)
Text: The Arthus model (RPA) is a model of immune-complex mediated tissue damage that involves the passive subcutaneous introduction of an antibody and the systemic administration of the corresponding antigen. This inflammatory model has been used to test the in vivo activity of the synthesised molecules.
The reverse passive Arthus reaction is induced, in the mouse ear pinna, by the subcutaneous injection of an excess of IgG anti human albumin followed by i.v. adiministration of the corresponding Ag (i.e. human albumin) together with Evans blue, 2 mg for each mouse, for the evaluation of extravasation.
(§1) The tested molecules were solubilised in DMSO, cremophor and PBS in a ratio of 1:1:18 and administered usually by intraperitonelly at the dosage of 10 mg/Kg 1 hour before the induction of anafilactic reaction. The animals were sacrificed 3 hours after the molecule administration.
The oedema and the extravasations are evaluated tree hours after the i.v. administration of the antigen. The oedema is evaluated as the increase of weight of lesioned ear area dissected by a 8 mm biopsy punch as compared to the contralateral unlesioned auricular tissues. The extravasation is measured determining the Evans blue density at 620 nm in the supernatants deriving from ear homogenates following centrifugation at 10000 x g for 20 min.

[3] = Rectal temperature (central cannabinoid effect, hypothermia); assay type: in vivo, mouse; conditions: treated animals; Vehicle 0,1 ± 0,2
Protocol: as §1
TABLE 4. Rectal temperature in animals that have been treated with cannabinoids, endocannabinoids or molecules that are object of the present invention. Note a profound hypothermia induced by synthetic cannabinoid such as Win 55,212 or the endocannabinoid Anandamide while no alteration was induced by molecules that are object of the present invention.

Row | SMILES | solubility [1] [µg/mL] | solubility in water [1] | Growth inhibition (% of control) (Jurkat cells) | Extravasation [2] | Oedema (mg) [2] | Riduction % (extravasation) [2] [%] | ΔT (°C) rectal temperature [3]
1 | CCCCCCCCCCCCCCCCCC(=O)NCCCCC [Example 34, N- pentyl-stearoyl amide] | > 10000 | scarcely soluble | 34.2 % of control | 0,62±0,08 | 42,5 ± 3.5 mg | 31.2 | 0,1 ± 0,1 °C
2 | CCCCCCCCCCCCCCCC(=O)NCCC(C)C [Example 35, N-isopentyl-palmitoyl amide] | > 10000 | scarcely soluble | 29.2 % of control | 0,58±0,09 | 38,3 ± 1.8 mg | 35.6 | 0,3 ± 0,2 °C
3 | CCCCCCCCCCCCCCCCCC(=O)NCCC(C)C [Example 36, N-isopentyl-stearoyl amide] | > 10000 | scarcely soluble | 30.2 % of control | 0,52±0,05 | 33,7 ± 3.2 mg | 42.7 | 0,1 ± 0,1 °C
4 | CCCCCCCCCCCCCCCCCC(=O)NC1CCCC1 [Example 38, N-cyclopentyl-stearoyl amide] | > 10000 | scarcely soluble | 31.8 % of control | 0,51±0,14 | 32,3 ± 3.3 mg | 43.4 | 0,2 ± 0,2 °C

Source: patent publication EP1592418B1, “USE OF ENDOCANNABINOID-LIKE COMPOUNDS FOR TREATING CNS DEGENERATIVE DISORDERS” (Research & Innovation S.p.A., priority 2003, dated 2004)
